In patent US20180343865A1, “HERBICIDAL COMPOSITIONS COMPRISING ISOXAZOLO[5,4-B]PYRIDINES” (BASF SE, priority 2015, published 2018):
“And” between values parts separate entries of the source, which are not always exact repeats. Identical values can stand only once. Like-named read-outs stand apart in the source and are kept apart here.

Assays:
Assay type in all cases: in vivo
Abutilon theoprasti = assay: Greenhouse postemergence herbicidal activity on ABUTH, 20 DAT
Experimental: (§1) For the post emergence treatment, the plants were first grown to the 2 leaf station (GS 12) and applied at GS 12-19 depending on the species. The herbicidal compositions were suspended or emulsified in water as distribution medium and sprayed using finely distributing nozzles.
(§2) The plants have been cultivated due to their individual requirements at 10 to 25° C. and. 20 to 35° C. The plants were irrigated due to their necessity.
(§3) The respective stated components A), were formulated as a 5% by weight strength emulsion concentrate containing wettol EM 31 20% and Cyclohexanone 80%. The respective stated components B), were formulated as either emulsifiable concentrates (EC), soluble liquids (SL), suspension concentrates (SC) or soluble granules (SG) as indicated in the table below. Component A, component B and the solvent system are introduced into the spray liquor used for applying the active compound. In the examples, the solvent used was water containing 1% Dash (Agnique ME 181 37.5%, Lutensit A-EP 22.5%, and Oleic Acid 5%) and 2% ammonium suflate.
(§4) In the following experiments, the herbicidal activity for the individual herbicide compounds (solo and mixture applications), the herbicidal succession was assessed 20 days after treatment (DAT). The evaluation for the damage on undesired weeds caused by the chemical compositions was carried out using a scale from 0 to 100%, compared to the untreated control plants. Here, 0 means no damage and 100 means complete destruction of the plants. The plants used in the greenhouse experiments belonged to the following species:
(§5) The value E, which corresponds to the effect (in %) that is to be expected if the activity of the individual compounds is additive, was calculated using the method of S. R. Colby (1967) “Calculating synergistic and antagonistic responses of herbicide combinations”, Weeds 15, p. 22 ff. Colby calculation for 2 way mixtures:
(§6) where: • X=effect in percent using herbicide A at an application rate a; • Y=effect in percent using herbicide B at an application rate b; • E=expected effect (in %) of A+B at application rates a+b
(§7) If the value observed in this manner is higher than the value E calculated according to Colby, a synergistic effect is present.

Polygonum convolvulus = assay: Greenhouse postemergence herbicidal activity on POLCO, 20 DAT; conditions: Fallopia convolvulus, post-emergence, POLCO, postemergence; for inhibition at 62.5 g/ha: 62.5 gai/ha
Experimental: as §1, §2, §3, §4, §5, §6, §7

Amaranthus retroflexus = assay: Greenhouse postemergence herbicidal activity on AMARE, 20 DAT; conditions: AMARE, postemergence; for inhibition at 62.5 g/ha: 62.5 gai/ha
Experimental: as §1, §2, §3, §4, §5, §6, §7

Ipomoea hederacea = assay: Greenhouse postemergence herbicidal activity on IPOHE, 20 DAT; conditions: for inhibition at 125 g/ha: 125 gai/ha
Experimental: as §1, §2, §3, §4, §5, §6, §7

Matricaria chamomilla = assay: Greenhouse postemergence herbicidal activity on MATCH, 20 DAT; conditions: Matricaria chamomilla, post-emergence, 62.5 gai/ha
Experimental: as §1, §2, §3, §4, §5, §6, §7

Stellaria media = assay: Greenhouse postemergence herbicidal activity on STEME, 20 DAT; conditions: STEME, postemergence
Experimental: as §1, §2, §3, §4, §5, §6, §7

Sorghum bicolor = assay: Greenhouse postemergence herbicidal activity on SORVU, 20 DAT; conditions: Sorghum bicolor, post-emergence, 480 h, SORVU, postemergence, 20 DAT, read-out: % activity, solo (I.A)
Experimental: as §1, §2, §3, §4, §5, §6, §7

Kochia scoparia = assay: Greenhouse postemergence herbicidal activity on KCHSC, 20 DAT; conditions: for inhibition at 31.25 g/ha: 31.25 gai/ha; for inhibition at 62.5 g/ha: 62.5 gai/ha
Experimental: as §1, §2, §3, §4, §5, §6, §7

Galium aparine = assay: Greenhouse postemergence herbicidal activity on GALAP, 20 DAT; conditions: Galium aparine, post-emergence; for inhibition at 31.25 g/ha: 31.25 gai/ha; for inhibition at 62.5 g/ha: 62.5 gai/ha; for inhibition at 125 g/ha: 125 gai/ha; for inhibition at 250 g/ha: 250 gai/ha
Experimental: as §1, §2, §3, §4, §5, §6, §7

ALOMY = assay: Greenhouse postemergence herbicidal activity on ALOMY, 20 DAT; conditions: Alopecurus myosuroides, post-emergence, Table 8, read-out: % activity, solo application (I.A)
BROST = assay: Greenhouse postemergence herbicidal activity on BROST, 20 DAT; conditions: post-emergence, 31.25 gai/ha, Table 8, read-out: % activity, solo application (I.A)
CONAR = assay: Greenhouse postemergence herbicidal activity on CONAR, 20 DAT; conditions: post-emergence, Table 8, read-out: % activity, solo application (I.A)
DIGSA = assay: Greenhouse postemergence herbicidal activity on DIGSA, 20 DAT; conditions: Digitaria sanguinalis, post-emergence, Table 8, read-out: % activity, solo application (I.A)
[1] = Table 6, read-out: % activity, solo application (I.A)
[2] = Table 8, read-out: % activity, solo application (I.A)
[3] = 480 h, 20 DAT, read-out: % activity, solo (I.A)
[4] = Bassia scoparia, post-emergence, Table 6, read-out: % activity, solo application (I.A)
[5] = Bassia scoparia, post-emergence, 480 h, 20 DAT, read-out: % activity, solo (I.A)

CC(C)c1noc2nc(C3CC3)cc(C(=O)O)c12 [(I.A)]
% activity, solo (I.A) (Abutilon theoprasti; 62.5 gai/ha, 20 DAT): 98% | inhibition at 7.8 g/ha (Abutilon theoprasti; Abutilon, post-emergence, 7.8 gai/ha, Table 8, read-out: % activity, solo application (I.A)): 0% | inhibition at 15.6 g/ha (Abutilon theoprasti; Abutilon, post-emergence, 15.6 gai/ha, Table 8, read-out: % activity, solo application (I.A)): 0% | inhibition at 31.25 g/ha (Abutilon theoprasti; Abutilon, post-emergence, 31.25 gai/ha, Table 8, read-out: % activity, solo application (I.A)): 20% | inhibition at 62.5 g/ha (Abutilon theoprasti; Abutilon, post-emergence, 62.5 gai/ha, Table 6, read-out: % activity, solo application (I.A)): 70% | inhibition at 62.5 g/ha (Abutilon theoprasti; Abutilon, post-emergence, 62.5 gai/ha, Table 8, read-out: % activity, solo application (I.A)): 30% | inhibition at 125 g/ha (Abutilon theoprasti; Abutilon, post-emergence, 480 h, 125 gai/ha, 20 DAT, read-out: % activity, solo (I.A)): 73% | inhibition at 250 g/ha (Abutilon theoprasti; Abutilon, post-emergence, 480 h, 250 gai/ha, 20 DAT, read-out: % activity, solo (I.A)): 92% | inhibition at 15.6 g/ha (Polygonum convolvulus; 480 h, 15.6 gai/ha, 20 DAT, read-out: % activity, solo (I.A)): 30% | inhibition at 31.25 g/ha (Polygonum convolvulus; 31.25 gai/ha, Table 6, read-out: % activity, solo application (I.A)): 73% | inhibition at 62.5 g/ha (Polygonum convolvulus; [1]): 95% | inhibition at 62.5 g/ha (Polygonum convolvulus; [2]): 35% | inhibition at 125 g/ha (Polygonum convolvulus; 125 gai/ha, Table 6, read-out: % activity, solo application (I.A)): 99% | % activity, solo (I.A) (Amaranthus retroflexus; 31.25 gai/ha, 20 DAT): 58% and 78% and 80% | inhibition at 62.5 g/ha (Amaranthus retroflexus; Amaranthus retroflexus, post-emergence, 480 h, 20 DAT, read-out: % activity, solo (I.A)): 94% | inhibition at 125 g/ha (Amaranthus retroflexus; Amaranthus retroflexus, post-emergence, 480 h, 125 gai/ha, 20 DAT, read-out: % activity, solo (I.A)): 93% | inhibition at 7.8 g/ha (Amaranthus retroflexus; Amaranthus retroflexus, post-emergence, 7.8 gai/ha, Table 8, read-out: % activity, solo application (I.A)): 0% | inhibition at 15.6 g/ha (Amaranthus retroflexus; Amaranthus retroflexus, post-emergence, 15.6 gai/ha, Table 8, read-out: % activity, solo application (I.A)): 15% | inhibition at 31.25 g/ha (Amaranthus retroflexus; Amaranthus retroflexus, post-emergence, 31.25 gai/ha, Table 6, read-out: % activity, solo application (I.A)): 65% | inhibition at 62.5 g/ha (Amaranthus retroflexus; Amaranthus retroflexus, post-emergence, Table 8, read-out: % activity, solo application (I.A)): 85% | % activity, solo (I.A) (Ipomoea hederacea; 31.25 gai/ha, 20 DAT): 95% | % activity, solo (I.A) (Ipomoea hederacea; 62.5 gai/ha, 20 DAT): 95% | inhibition at 31.25 g/ha (Ipomoea hederacea; Ipomoea hederacea, post-emergence, 31.25 gai/ha, Table 6, read-out: % activity, solo application (I.A)): 75% | inhibition at 31.25 g/ha (Ipomoea hederacea; Ipomoea hederacea, post-emergence, 31.25 gai/ha, Table 8, read-out: % activity, solo application (I.A)): 50% | inhibition at 62.5 g/ha (Ipomoea hederacea; Ipomoea hederacea, post-emergence, 62.5 gai/ha, Table 6, read-out: % activity, solo application (I.A)): 87% | inhibition at 125 g/ha (Ipomoea hederacea; Ipomoea hederacea, post-emergence, Table 6, read-out: % activity, solo application (I.A)): 98% | inhibition at 128 g/ha (Ipomoea hederacea; Ipomoea hederacea, post-emergence, 128 gai/ha, Table 6, read-out: % activity, solo application (I.A)): 98% | inhibition at 250 g/ha (Ipomoea hederacea; Ipomoea hederacea, post-emergence, 250 gai/ha, Table 6, read-out: % activity, solo application (I.A)): 99% | inhibition at 15.6 g/ha (Ipomoea hederacea; Ipomoea hederacea, post-emergence, 480 h, 15.6 gai/ha, 20 DAT, read-out: % activity, solo (I.A)): 65% | inhibition at 31.25 g/ha (Ipomoea hederacea; Ipomoea hederacea, post-emergence, 480 h, 31.25 gai/ha, 20 DAT, read-out: % activity, solo (I.A)): 75% | inhibition at 62.5 g/ha (Ipomoea hederacea; Ipomoea hederacea, post-emergence, 480 h, 62.5 gai/ha, 20 DAT, read-out: % activity, solo (I.A)): 87% | inhibition at 125 g/ha (Ipomoea hederacea; Ipomoea hederacea, post-emergence, 480 h, 20 DAT, read-out: % activity, solo (I.A)): 98% | inhibition at 62.5 g/ha (Matricaria chamomilla; [2]): 70% | inhibition at 62.5 g/ha (Matricaria chamomilla; [3]): 65% | % activity, solo (I.A) (Stellaria media; 31.25 gai/ha, 20 DAT): 35% | % activity, solo (I.A) (Stellaria media; 62.5 gai/ha, 20 DAT): 70% and 95% | inhibition at 31.25 g/ha (Stellaria media; Stellaria media, post-emergence, 480 h, 31.25 gai/ha, 20 DAT, read-out: % activity, solo (I.A)): 20% | inhibition at 15.6 g/ha (Stellaria media; Stellaria media, post-emergence, 15.6 gai/ha, Table 8, read-out: % activity, solo application (I.A)): 0% | inhibition at 31.25 g/ha (Stellaria media; Stellaria media, post-emergence, 31.25 gai/ha, Table 8, read-out: % activity, solo application (I.A)): 0% | inhibition at 62.5 g/ha (Stellaria media; Stellaria media, post-emergence, 62.5 gai/ha, Table 8, read-out: % activity, solo application (I.A)): 0% | inhibition at 15.6 g/ha (Sorghum bicolor; 15.6 gai/ha): 30% | inhibition at 31.25 g/ha (Sorghum bicolor; 31.25 gai/ha): 30% | inhibition at 62.5 g/ha (Sorghum bicolor; 62.5 gai/ha): 30% | inhibition at 125 g/ha (Sorghum bicolor; 125 gai/ha): 40% | % activity, solo (I.A) (Kochia scoparia; 125 gai/ha, 20 DAT): 95% | inhibition at 31.25 g/ha (Kochia scoparia; [4]): 30% | inhibition at 62.5 g/ha (Kochia scoparia; [4]): 63% | inhibition at 31.25 g/ha (Kochia scoparia; [5]): 35% | inhibition at 62.5 g/ha (Kochia scoparia; [5]): 68% | inhibition at 125 g/ha (Kochia scoparia; Bassia scoparia, post-emergence, 480 h, 125 gai/ha, 20 DAT, read-out: % activity, solo (I.A)): 90% | inhibition at 31.25 g/ha (Galium aparine; [1]): 43% | inhibition at 62.5 g/ha (Galium aparine; [1]): 60% | inhibition at 62.5 g/ha (Galium aparine; [2]): 45% | inhibition at 125 g/ha (Galium aparine; [1]): 73% | inhibition at 250 g/ha (Galium aparine; [1]): 95% | inhibition at 31.25 g/ha (Galium aparine; [3]): 43% | inhibition at 62.5 g/ha (Galium aparine; [3]): 60% | inhibition at 125 g/ha (Galium aparine; [3]): 73% | inhibition at 250 g/ha (Galium aparine; [3]): 95% | inhibition at 15.6 g/ha (ALOMY; 15.6 gai/ha): 0% | inhibition at 31.25 g/ha (ALOMY; 31.25 gai/ha): 0% | inhibition at 62.5 g/ha (ALOMY; 62.5 gai/ha): 20% | inhibition at 31.25 g/ha (BROST): 0% | inhibition at 7.8 g/ha (CONAR; 7.8 gai/ha): 0% | inhibition at 15.6 g/ha (CONAR; 15.6 gai/ha): 0% | inhibition at 31.25 g/ha (CONAR; 31.25 gai/ha): 0% | inhibition at 62.5 g/ha (CONAR; 62.5 gai/ha): 35% | inhibition at 31.25 g/ha (DIGSA; 31.25 gai/ha): 0% | inhibition at 62.5 g/ha (DIGSA; 62.5 gai/ha): 0%
